Assay results from US6410566B1, “Cyclic amine derivatives and their use as drugs” (Teijin Limited, priority 2000, dated 2002).

Tests used:
[1] = target: T1, binding of human MIP-1α to THP-1 cells (Homo sapiens, UniProt P32246); experiment: Inhibition of MIP-1α binding to THP-1 cells
T1 construct: endogenous in cells; host or cells: THP-1 (human monocytic leukemia cell line), whole cells
T1 sequence (P32246 1-355): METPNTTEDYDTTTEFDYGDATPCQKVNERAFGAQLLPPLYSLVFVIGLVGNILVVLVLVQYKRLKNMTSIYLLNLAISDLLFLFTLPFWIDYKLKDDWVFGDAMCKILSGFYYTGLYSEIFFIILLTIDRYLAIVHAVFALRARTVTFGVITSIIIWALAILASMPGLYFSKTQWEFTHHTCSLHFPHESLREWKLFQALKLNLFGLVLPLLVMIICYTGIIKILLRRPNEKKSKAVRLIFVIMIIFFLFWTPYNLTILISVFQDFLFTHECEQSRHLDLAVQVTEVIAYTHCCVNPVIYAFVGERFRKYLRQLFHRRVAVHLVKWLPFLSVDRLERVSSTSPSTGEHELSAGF
Procedure: Measurement of Inhibition of MIP-1α Binding to THP-1 Cells by Test Compounds
(§1) Human monocytic leukemia cell line THP-1 was suspended in assay buffer (RPMI-1640 (Gibco-BRL Co.) containing 0.1% BSA and 25 mM HEPES adjusted to pH 7.4) to give a cell suspension of a concentration of 1×10^7 cells/mL. The test compound was diluted in the assay buffer and used as the test compound solution. Iodinated human MIP-1α (DuPont NEN Co.) was diluted in assay buffer to 250 nCi/mL and used as the labeled ligand solution. In a 96 well filter plate (Millipore Co.), 25 μL of test compound solution, 25 μL of labeled ligand solution and 50 μL of cell suspension were aliquoted into each well in this order, stirred (total reaction volume 100 μL), and incubated for one hour at 18° C.
(§2) After the reaction, the reaction solution was filtered, and the filter was washed twice with 200 μL of cold PBS (200 μL of cold PBS was added and then filtered). The filter was air-dried and 25 μL of liquid scintillator was added into each well. The radioactivity retained by the cells on the filter were measured using TopCounit (Packard Instrument Co.).
To calculate the ability of test compounds to inhibit binding of human MIP-1α to THP-1 cells, non-specific binding determined by adding 100 ng of unlabeled human MIP-1α (Peprotech Co.) in place of the test compound was subtracted, while the counts with no test compound added was taken as 100%.
(§3) Inhibition (%)={1−(A−B)/(C−B)}×100
(A, counts with test compound added; B, counts with 100 ng of unlabeled human MIP-1α added; C, counts with [^125I]-labeled human MIP-1α added).

[2] = target: T2, binding of human MCP-1 to THP-1 cells (Homo sapiens, UniProt P41597); experiment: Inhibition of binding of [125I]-labeled baculovirus expressed human MCP-1 to THP-1 cells (Method 1); conditions: for inhibition at 100 µM: Method 1, at 100 μM
T2 construct: endogenous in cells; host or cells: THP-1 (human monocytic leukemia cell line), whole cells
T2 sequence (P41597 1-360 isoform P41597-2): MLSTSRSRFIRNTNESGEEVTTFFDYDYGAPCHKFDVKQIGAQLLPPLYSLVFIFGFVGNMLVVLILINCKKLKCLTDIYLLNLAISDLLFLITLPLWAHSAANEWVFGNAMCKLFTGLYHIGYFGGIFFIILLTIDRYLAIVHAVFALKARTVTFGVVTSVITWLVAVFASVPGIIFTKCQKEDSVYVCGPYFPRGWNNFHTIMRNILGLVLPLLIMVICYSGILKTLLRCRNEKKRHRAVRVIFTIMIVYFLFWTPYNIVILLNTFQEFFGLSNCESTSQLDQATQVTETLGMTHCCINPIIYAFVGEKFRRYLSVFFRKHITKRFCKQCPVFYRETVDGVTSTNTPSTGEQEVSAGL
Description: Measurement of Inhibition of MCP-1 Binding to THP-1 Cells 1. Construction of recombinant baculovirus carrying the human MCP-1 gene Based on the previously published human MCP-1 gene sequence (for example T. Yoshirnura et al., FEBS Lett., 1989, 244, 487-493), two synthetic DNA primers ([NT] and [NT]) flanked by restriction enzyme sites were used to amplify a DNA fragment from cDNA derived from human endothelial cells (purchased from Kurabow Co.); the amplified fragment was cut with the restriction enzymes (PstI and XbaI), ligated into a transfer vector pVL1393 (Invitrogen Co.), and the resulting vector was co-transfected along with infectious baculovirus into Sf-9 insect cells and the supernatant was plaque assayed to yield human MCP-1 gene baculovirus recombinant. […] Using the method of K. Ishii et al. […] The culture supernatant was affinity purified using a heparin Sepharose column (Pharmacia Co.) and then further purified using reverse phase HPLC (Vydac C18 column) to prepare purified human MCP-1. […] 3-1. […] The test. compound was diluted in the assay buffer and used as the test compound solution. [^125I]-labeled human MCP-1 described above was diluted in assay buffer to 1 mCi/mL and used as the labeled ligand solution. In a 96 well filter plate (Millipore Co.), 25 μL of test compound solution, 25 μL of labeled ligand solution and 50 μL of cell suspension were aliquoted into each well in this order, stirred (total reaction volume 100 μL), and incubated for one hour at 18° C. After the reaction, the reaction solution was filtered, and the filter was washed twice with 200 μL of cold PBS (200 μL of cold PBS was added and then filtered). The filter was air-dried and 25 μL of liquid sciatillator was added into each well. The radioactivity retained by the cells on the filter were measured using TopCount (Packard Instrument Co.). To calculate the ability of test compound to inhibit binding of human MCP-1 to THP-1 cells, non-specific binding determined by adding 100 ng of unlabeled human MCP-1 in place of the test compound was subtracted, while the counts with no test compound added was taken as 100%. Inhibition (%)=(1-(A-B)/(C-B))×100 (A, counts with test compound added; B, counts with 100 ng of unlabeled human MCP-1 added; C, counts with [^125I]-labeled human MCP-1 added).

[3] = tested on: THP-1 cells; experiment: Inhibition of cell chemotaxis caused by MCP-1; format: cell-based; conditions: Homo sapiens, MCP-1 20 ng/mL, read-out: inhibition of cell migration IC50
Procedure: Measurement of Inhibition of Cell Chemotaxis
In order to determine the inhibition of cell chemotaxis by the compounds of this invention, we measured cell chemotaxis caused by monocyte chemotactic factor MCP-1 using the human monocytic leukemia cell line THP-1 as the chemotactic cell according to the method of Fall et al. (J. Immunol. Methods, 190, 33,239-247). 2×10^6 cells/mL of THP-1 cells (suspended in RPMI-1640 (Flow Laboratories Co.)+10% FCS) was placed in the upper chamber (200 μL) of a 96 well micro-chemotaxis chamber (Neuroprobe; registered tradename), and human recombinant MCP-1 in a same solution (Peprotech Co.) at a final concentration of 20 ng/mL was placed in the lower chamber, with a polycarbonate filter (PVP-free, Neuroprobe; registered tradename) placed between the two chambers. These were incubated at 37° C. for 2 hr in 5% CO2.
The filter was removed, and the cells which had migrated to the underside of the filter was fixed, stained using Diff Quick (Kokusai Shiyaku Co.) and then quantitated using a plate reader (Molecular Device Co.) at a wavelength of 550 nm to determine the index of cell migration as a mean of 3 wells. In addition, test compounds were placed in the upper and lower chambers along with THP-1 and MCP-1, respectively, and the inhibition of cell migration (inhibition IC50 (μM)) was determined.

[4] = target: T2, binding of human MCP-1 to THP-1 cells; experiment: Inhibition of binding of [125I]-labeled baculovirus expressed human MCP-1 to THP-1 cells (Method 2); conditions: for inhibition at 1 µM: Method 2, at 1 μM
Description: 1. Construction of recombinant baculovirus carrying the human MCP-1 gene
Based on the previously published human MCP-1 gene sequence (for example T. Yoshirnura et al., FEBS Lett., 1989, 244, 487-493), two synthetic DNA primers (5′-[…]-3′ and 5′-[…]-3′) flanked by restriction enzyme sites were used to amplify a DNA fragment from cDNA derived from human endothelial cells (purchased from Kurabow Co.); the amplified fragment was cut with the restriction enzymes (PstI and XbaI), ligated into a transfer vector pVL1393 (Invitrogen Co.), and the resulting vector was co-transfected along with infectious baculovirus into Sf-9 insect cells and the supernatant was plaque assayed to yield human MCP-1 gene baculovirus recombinant.
2. Synthesis of [^125I]-labeled human MCP-1 expressed in baculovirus
Using the method of K. Ishii et al. (Biochem Biophys Research Communications, 1995, 206, 955-961), 5×10^6 Sf-6 insect cells was infected with 5×10^7 PFU (plaque forming units) of the above human MCP-1 recombinant baculovirus and cultured for 7 days in Ex-Cell 401 medium. The culture supernatant was affinity purified using a heparin Sepharose column (Pharmacia Co.) and then further purified using reverse phase HPLC (Vydac C18 column) to prepare purified human MCP-1. The purified human MCP-1 was protein labeled by Amersham Co. using the Bolton Hunter method to yield [^125I]-labeled baculovirus expressed human MCP-1 (specific activity 2000 Ci/mmol).
3-2. Measurement of inhibition of binding of [^125I]-labeled baculovirus expressed human MCP-1 to THP-1 cells (Method 2)
as §1, with “(50” for “(RPMI-1640 (Gibco-BRL Co.) containing 0.1% BSA and 25”, “HEPES,” for “HEPES adjusted to”, “7.4, 1.0 mM CaCl2, 5.0% mM MgCl2, 0.5% BSA)” for “7.4)”, “[^125I]-labeled” for “Iodinated”, “MCP-1 described above” for “MIP-1α (DuPont NEN Co.)”, “1 mCi/mL” for “250 nCi/mL”
as §2, with “TopCount” for “TopCounit”
To calculate the ability of test compound to inhibit binding of human MCP-1 to THP-1 cells, non-specific binding determined by adding 100 ng of unlabeled human MCP-1 in place of the test compound was subtracted, while the counts with no test compound added was taken as 100%.
as §3
(A, counts with test compound added; B, counts with 100 ng of unlabeled human MCP-1 added; C, counts with [^125I]-labeled human MCP-1 added).

Row | SMILES | inhibition at 10 µM [1] | inhibition at 100 µM [2] | IC50 [3] | other results
1 | O=C(CNC(=O)c1ccccc1)NCC1CCN(Cc2ccc(Cl)cc2)CC1 [Compound No. 458, 4-{(N-Benzoylglycyl)amino}methyl-1-(4-chlorobenzyl)piperidine] | 50 to 80% | > 80% |  | 
2 | O=C(CNC(=O)c1cccc(C(F)(F)F)c1)NCC1CCN(Cc2ccc(Cl)cc2)CC1 [Compound No. 461, 1-(4-chlorobenzyl)-4-[{N-(3-(trifluoromethyl)benzoyl)glycyl}aminomethyl]piperidine] | > 80% |  | < 100 nM | 
3 | Nc1ccc(Br)cc1C(=O)NCC(=O)NCC1CCN(Cc2ccc(Cl)cc2)CC1 [Compound No. 1042, 4-{N-(2-amino-5-bromobenzoyl)glycyl}aminomethyl-1-(4-chlorobenzyl)piperidine] | 50 to 80% |  | < 100 nM | inhibition at 1 µM [4]: > 80%; inhibition at 10 µM ([4]; Method 2, at 10 μM): > 80%; inhibition at 2 µM [1]: 20 to 50%
4 | O=C(CNC(=O)c1ccccc1)NC1CCN(Cc2ccc(Cl)cc2)C1 (centres unmarked) [compound 1, 3-(N-Benzoylglycyl)amino-1-(4-chlorobenzyl)pyrrolidine] | 50 to 80% | 50 to 80% |  | 

More lines, main results first:

Row | inhibition at 10 µM [1] | inhibition at 100 µM [2] | IC50 [3] | SMILES | other results
5 | 50 to 80% |  |  | CN(CC1CCN(Cc2ccc(Cl)cc2)CC1)C(=O)CNC(=O)c1cccc(C(F)(F)F)c1 [Compound No. 520, 1-(4-chlorobenzyl)-4-[N-methyl-N-{N-(3-(trifluoromethyl)benzoyl)glycyl}aminomethyl]piperidine] | inhibition at 10 µM ([2]; Method 1, at 10 μM): 50 to 80%
6 | 20 to 50% |  |  | O=C(NCC(=O)N(CC1CCN(Cc2ccc(Cl)cc2)CC1)CC(c1ccccc1)c1ccccc1)c1ccccc1 [Compound No. 524, 4-{N-(N-Benzoylglycyl)-N-(2,2-diphenylethyl)aminomethyl}-1-(4-chlorobenzyl)piperidine] | 
7 | 50 to 80% |  |  | CC(C)[C@H](NC(=O)c1cccc(C#N)c1)C(=O)NCC1CCN(Cc2ccc(Cl)cc2)CC1 [Compound No. 619, 1-(4-Chlorobenzyl)-4-[{N-(3-cyanobenzoyl)valyl}aminomethyl]piperidine] | 
8 | > 80% | 20 to 50% |  | CC(C)c1ccc(S(=O)(=O)NCC(=O)NCC2CCN(Cc3ccc(Cl)cc3)CC2)cc1 [Compound No. 869, 1-(4-Chlorobenzyl)-4-[{N-(4-isopropylphenylsulfonyl)glycyl}aminomethyl]piperidine] | 
9 |  |  | < 100 nM | Nc1cc(Cl)ccc1CN1CCC(CNC(=O)CNC(=O)c2cc(C(F)(F)F)ccc2N)CC1 [Compound No. 1919, 4-[{N-(2-Amino-5-trifluoromethylbenzoyl)glycyl}aminomethyl]-1-(2-amino-4-chlorobenzyl)piperidine] | inhibition at 1 µM [4]: > 80%; inhibition at 2 µM [1]: 20 to 50%
